The source of these data is patent US6620833B1, “Substituted benzimidazoles, production and use thereof as agents for combating parasitic protozoas” (Bayer Aktiengesellschaft, priority 1998, dated 2003).

SMILES strings stand for the structures.

What all share (format): in vivo
The subject of assay [1] is Eimeria acervulina, Eimeria maxima and Eimeria tenella. Description: Cage experiment on coccidiosis/chicks, mixed experimental infection. The settings on record: for dropping scores / lesion score: assessment 0 to 6; for mortality n: dead animals/animals employed. On the procedure:
8 to 12 day-old male chicks (e.g. LSL Brinkschulte/Senden) which have been reared coccidia-free receive the compounds according to the invention (test substances) in the concentration indicated in ppm with the feed from 3 days before (day −3) infection (=a.i.) until 8 (9) days after infection (=p.i.). 3 animals are kept in each cage. One or more groups of this type are employed per dose. Infection is carried out by means of a stomach tube directly into the crop with approximately 100,000 sporulated oocysts of Eimeria acervulina and with approximately 30,000 oocysts each of E. maxima and 40,000 sporulated oocysts of E. tenella. These are highly virulent strains. The exact infection dose is adjusted so that, if possible, one of three experimentally infected untreated chicks dies due to the infection. For assessment of the efficacy, the following criteria are taken into account: weight increase from the start of the experiment to the end of the experiment, death rate due to infection, macroscopic assessment of the faeces with respect to diarrhoea and excretion of blood on days 5 and 7 p.i. (assessment 0 to 6), macroscopic assessment of the intestinal mucosa, in particular of the appendices (assessment 0 to 6) and the oocyst excretion as well as the proportion (in %) of the oocysts sporulating in the course of 24 hours. The number of oocysts in the faeces was determined with the aid of a McMaster counting chamber (see Engelbrecht and coworkers “Parasitologische Arbeitsmethoden in Medizin and Veterinärmedizin” [Parasitological Working Methods in Medicine and Veterinary Medicine], Akademie-Verlag, Berlin (1965)). The individual findings are related to the untreated non-infected control groups and a total score is calculated (cf. A. Haberkorn (1986), pp. 263 to 270 in Research in Avian Coccidiosis ed L. R. McDougald, L. P. Joyner, P. L. Long, Proceedings of the Georgia Coccidiosis Conference, Nov. 18-20, 1985. Athens/Georgia USA).
In the column “ppm”, the concentration of the active compound employed in the feed is indicated in ppm.
In the column “mortality” the percentage of the dead animals is indicated under % and the number of dead animals/animals employed in the experiment is indicated under n.
In the column “weight % of not inf. control” the ratio of the weight of the treated animals to the weight of the non-infected control group is indicated.
In the columns “dropping scores”, “lesion score” and “oocyst control”, individual details of the action are given.
In the column “% efficacy”, the total score is assessed; 0% means no action, 100% means full action.

The subject of another assay is Eimeria acervulina. Description: Cage experiment on coccidiosis/chicks, E. acervulina readout.
Another assay deals with Eimeria maxima. Nature of the assay: Cage experiment on coccidiosis/chicks, E. maxima readout.
In a further assay the test system is Eimeria tenella. Nature of the assay: Cage experiment on coccidiosis/chicks, E. tenella readout.

In the case of `CC[C@@]1([C@@H]2O[C@@H]([C@H]3O[C@@](O)(CO)[C@H](C)C[C@@H]3C)C[C@@H]2C)CC[C@H]([C@]2(C)CC[C@]3(C[C@H](O)[C@@H](C)[C@@H]([C@@H](C)[C@@H](OC)[C@H](C)C(=O)O)O3)O2)O1` [Mon., Monensin, reference compound], the “% efficacy tot.” value is listed as 45% in assay [1] (Table 1, 25 ppm in feed); 36% in assay [1] (Table 1, 50 ppm in feed); 24% in assay [1] (Table 1, 100 ppm in feed). The mortality % in assay [1] (Table 1, 25 ppm in feed) turned out to be 33%; in assay [1] (Table 1, 50 ppm in feed) it was 33%; in assay [1] (Table 1, 100 ppm in feed), 33%. For the same compound, the “oocyst in % of inf. control tot.” value in assay [1] (Table 1, 25 ppm in feed) is reported as 66%; in assay [1] (Table 1, 50 ppm in feed), 19%; in assay [1] (Table 1, 100 ppm in feed), 36%. Besides, the “weight % of not inf. control” value in assay [1] (Table 1, 25 ppm in feed) amounted to 36%; in assay [1] (Table 1, 50 ppm in feed), 81%; in assay [1] (Table 1, 100 ppm in feed), 30%. The dropping scores in assay [1] (Table 1, 25 ppm in feed) stood at 6; in assay [1] (Table 1, 50 ppm in feed), 6; in assay [1] (Table 1, 100 ppm in feed) it was 6. Besides, the lesion score in assay [1] (Table 1, 25 ppm in feed) is given as 6; in assay [1] (Table 1, 50 ppm in feed), 6; in assay [1] (Table 1, 100 ppm in feed), 6. Besides, the mortality n is reported as 1/3 in assay [1] (Table 1, 25 ppm in feed); 1/3 in assay [1] (Table 1, 50 ppm in feed); 1/3 in assay [1] (Table 1, 100 ppm in feed). For the same compound, the “oocyst in % of inf. control ac.” value worked out at 98% in the assay on Eimeria acervulina (Table 1, 25 ppm in feed); 44% in the assay on Eimeria acervulina (Table 1, 50 ppm in feed); 8% in the assay on Eimeria acervulina (Table 1, 100 ppm in feed). In addition, the “oocyst in % of inf. control max.” value is listed as 0% with Eimeria maxima (Table 1, 25 ppm in feed); 0% in the assay with Eimeria maxima (Table 1, 50 ppm in feed); 0% with Eimeria maxima (Table 1, 100 ppm in feed). The “oocyst in % of inf. control ten.” value in the assay with Eimeria tenella (Table 1, 25 ppm in feed) amounted to 100%; in the assay on Eimeria tenella (Table 1, 50 ppm in feed), 13%; in the assay on Eimeria tenella (Table 1, 100 ppm in feed), 100%.

In the case of `CC[C@@H](C(=O)[C@@H](C)[C@@H](O)[C@H](C)[C@@H]1O[C@@H]([C@@H](CC)C(=O)O)CC[C@@H]1C)[C@H]1O[C@]2(C=C[C@@H](O)[C@]3(CC[C@@](C)([C@H]4CC[C@](O)(CC)[C@H](C)O4)O3)O2)[C@H](C)C[C@@H]1C` [Sal., Salinomycin, reference compound], in assay [1] (Table 3, 15 ppm in feed), the mortality % came to 100% and the mortality n is listed as 3/3. For the same compound, in assay [1] (Table 3, 30 ppm in feed), the mortality % was found to be 100% and the mortality n is 3/3. Moreover, in assay [1] (Table 3, 60 ppm in feed), the “% efficacy tot.” value was 67%, the mortality % is recorded as 0%, the “oocyst in % of inf. control tot.” value was 12% and the “weight % of not inf. control” value stood at 106%. Further, in assay [1] (Table 3, 60 ppm in feed), the dropping scores is given as 6, the lesion score was found to be 1.3 and the mortality n is reported as 0/3. In the assay on Eimeria acervulina (Table 3, 60 ppm in feed), the “oocyst in % of inf. control ac.” value is 6%. In the assay with Eimeria maxima (Table 3, 60 ppm in feed), the “oocyst in % of inf. control max.” value was determined as 0%. Also, the “oocyst in % of inf. control ten.” value in the assay with Eimeria tenella (Table 3, 60 ppm in feed) came out at 31%.
